According to patent publication EP4079295A1, “COMPOSITION HAVING IMPROVED SOLUBILITY AND BIOAVAILABILITY OF OLAPARIB” (Samyang Holdings Corporation, priority 2019, dated 2021):
Converted amounts (≈) assume the structure as drawn.

Columns and labels:
[1] = Test Example 1: drug solubility, simple mixture versus solid dispersion; assay type: physicochemical; conditions: thermodynamic from solid, 20 ml, amount corresponding to 400 mg of Olaparib, 37°C, 100 rpm
Method: To 20 ml of distilled water and pH 1.2 buffer, each of the solid dispersions of Example 1 and 4 and the simple mixtures of Comparative Examples 2 and 3 corresponding to 400 mg of Olaparib was added, and stirred in an incubator at 37°C with 100 rpm for 1 hour. The test solution was filtered with RC syringe filter (0.2 µm) and 1 mL of the filtered solution was taken and diluted with 2 mL of the following diluent solution, and then the amount was measured according to Olaparib amount analysis method.
• 1) Diluent solution preparation Diluent solution - water (DW): acetonitrile (CAN)=1:1 • 2) Operation • Detector: UV absorption spectrometer 254 nm • Column: Nova-Pak C18 Column, 60Å, 4 µm, 3.9 mm × 150 mm • Flow rate: 1.2 ml/min • Injection amount: 5 µl • Column temperature: 35°C • Run time: 16 min • Mobile phase [Table 4]

[2] = cited from earlier work

solubility at 1 h ([1]; simulated gastric fluid, pH 1.2 buffer): 100 µg/mL (≈ 230 µM)
solubility at 1 h ([1]; water (distilled water)): 100 µg/mL (≈ 230 µM)
Compound: O=C(c1cc(Cc2n[nH]c(=O)c3ccccc23)ccc1F)N1CCN(C(=O)C2CC2)CC1 [Olaparib]
water solubility [2]: 100 to 130 µg/mL
pKa ([2]; weak acidic): 12.07
